GI50 and TGI data for seven compounds are collected here from PubChem BioAssay (NCI).

Experiment in all cases: NCI anticancer screen, dose series, 48 h
Assay [1] concerns A498 renal.
In assay [2] the test system is UO-31 renal.
For assay [3], the system named is NCI-H23 lung.
Assay [4] concerns TK-10 renal.
Assay [5] has as its system NCI-H460 lung.
For assay [6], the system named is RXF 393 renal.
Assay [7] deals with SK-OV-3 ovarian.
Assay [8] relates to SK-MEL-5 melanoma.
Assay [9] concerns NCI-H522 lung.
Assay [10] relates to PC-3 prostate.

The structures appear in SMILES notation. Values joined by “and” are separate entries in the source; they are usually repeats but may differ in a detail not shown here. Identical values can stand only once.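 Following 48 hours of exposure in 96-well plates, responses at five concentrations were used to interpolate endpoints linearly. At the GI50, growth is halved. TGI denotes the concentration required for complete inhibition of growth.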 Some results are limits rather than exact numbers.

With `O=C(Nc1ccc(-n2ccc3c(NC(=O)c4ccccc4)nccc32)cc1)c1ccc(Cl)c(C(F)(F)F)c1`, the GI50 in assay [1] was 6.1 µM; in assay [2], 2.86 µM; in [3], 7.16 µM; in [4] it was 5.38 µM; in [5], 0.0442 µM; in assay [6], 1.01 µM. The GI50 in [7] was 1.18 µM; in assay [8] it was 0.132 µM; in [9], 0.811 µM; in assay [10], 2.56 µM. Further, the TGI in assay [1] is 33.1 µM; in assay [2], above 50 µM; in assay [3], above 32.9 µM; in assay [4], 13.5 µM; in assay [5], 1.2 µM; in [6], 9.64 µM. The TGI in assay [7] worked out at 20.7 µM; in [8] it was 8.67 µM; in assay [9], 9.59 µM; in assay [10], 24.8 µM.

For the compound `COc1cccc(-c2cc(-c3cccc(NS(C)(=O)=O)c3)nc(N)c2C#N)c1O`, the GI50 is 0.0999 µM in [1]; 0.208 µM in [2]; 0.341 µM in [3]; 0.5 µM in assay [4]; 0.316 µM in assay [5]; 0.104 µM in assay [6]. Further, the GI50 in [7] is 0.149 µM; in [8] it was 0.0747 µM; in assay [9] it was 0.0163 µM; in assay [10], 0.111 µM. Also, the TGI in [1] is 35 µM; in [2], above 52.7 µM; in assay [3], above 100 µM; in assay [4] it was above 100 µM; in assay [5], above 39.5 µM; in [6] it was 1.39 µM. Moreover, the TGI in assay [7] was above 100 µM; in assay [8] it was 3.93 µM; in [9] it was 0.075 µM; in assay [10], above 100 µM.

For the compound `CN(C)c1ccc(/C=C\C2=[N+](C)c3ccccc3C2(C)C)cc1`, the GI50 in assay [1] is 4.38 µM; in assay [2] it was 3.74 µM; in assay [3], 0.299 µM; in [4], 1.25 µM; in assay [5], 0.466 µM; in assay [6] it was 1.45 µM. Also, the GI50 was 0.696 µM in assay [7], 0.715 µM in assay [8], 0.703 µM in assay [9] and 0.195 µM in assay [10]. The TGI is 28.2 µM in assay [1]; above 100 µM in assay [2]; 23.7 µM in assay [3]; above 52.4 µM in assay [4]; 7.16 µM in assay [5]; 27.7 µM in [6]. For the same compound, the TGI was above 24.4 µM in [7], 3 µM in assay [8] and above 67.4 µM in assay [9].

As to `O=C(Nc1ccc(F)cc1)Nc1ccc(Cl)c([N+](=O)[O-])c1`, the GI50 in [1] is 1.8 µM; in [2], 2.69 µM; in [3] it was 2.62 µM; in assay [4], 4.1 µM; in assay [5], 2.72 µM; in [6], 1.75 µM. For the same compound, the GI50 in assay [7] is 2.62 µM; in [8] it was 1.76 µM; in [9], 2.44 µM; in assay [10] it was 1.6 µM. Also, the TGI in assay [1] turned out to be 5.78 µM; in [2], 10.6 µM; in assay [3] it was 10.7 µM; in [4], 20.1 µM; in [5], 11.5 µM; in assay [6] it was 6.71 µM. The TGI in assay [7] was found to be 7.52 µM; in assay [8], 3.22 µM; in assay [9], 10.8 µM; in assay [10] it was 11.1 µM.

With `Nc1ccccc1C#C/C=C\C#Cc1ccccc1OC(F)(F)F`, the GI50 was 3.93 µM in [1]; 4.63 µM in assay [2]; 6.44 µM in assay [3]; 10.6 µM in [4]; 3.78 µM in assay [5]; 4.39 µM in assay [6]. Besides, the GI50 is 7.12 µM in assay [7], 4 µM in [8], 3.47 µM in assay [9] and 5.98 µM in [10]. The TGI in assay [1] turned out to be 14 µM; in [2] it was 22.8 µM; in assay [3] it was 80.2 µM; in assay [4], 43.7 µM; in assay [5], 17.3 µM; in [6] it was 23.9 µM. Also, the TGI in assay [7] is 67.7 µM; in [8], 15 µM; in [9] it was 14 µM; in assay [10], above 100 µM.

As to `CC(=O)OC1OC([C@@H]2c3cccc(O)c3C(=O)c3c(O)cc(C)cc32)C(O)C(O)C1O` (some centres not stated), the GI50 is 0.0444 µM in assay [1]; 0.0419 µM in assay [2]; below 0.0199 µM in assay [3]; 0.0286 µM in assay [4]; 0.108 µM in [5]; 0.35 µM in [6]. The GI50 in assay [7] is 0.134 µM; in assay [8] it was below 0.0119 µM; in [10], below 0.01 µM. Further, the TGI in assay [1] came out at 0.358 µM; in assay [2], 1.11 µM; in assay [3] it was 0.216 µM; in assay [4], 0.26 µM; in assay [6], 1.58 µM; in [7], 3.17 µM. Further, the TGI in assay [8] stood at 0.0294 µM; in assay [9] it was 0.382 µM.

As for `O=C(Nc1ccccc1)c1c(O)[nH]c(=S)[nH]c1=O`, the GI50 in assay [1] was 65.2 µM; in assay [2], 65.4 µM; in [3], 83.6 µM; in assay [5], 29.5 µM; in [8] it was 40.5 µM; in assay [9], 83 µM. The TGI is 106 µM and > 250 µM in [1]; 65.9 µM and 174 µM in [2]; 82.6 µM and > 250 µM in [3]; 125 µM in assay [4]; 101 µM and > 250 µM in assay [5]; 96.3 µM and 68.9 µM in assay [6]. For the same compound, the TGI in assay [7] is 122 µM; in [8], 46 µM and 85.2 µM; in assay [9] it was 58.3 µM and > 250 µM; in [10], 85.2 µM.
